In patent US20230085307A1, “PYRIDAZINONE COMPOUND AND HERBICIDE” (NISSAN CHEMICAL CORPORATION, priority 2019, published 2023):

tested on: lambsquarters; assay: Test Example 4: herbicidal effect by soil treatment (Table 19, symbol O); type: in vivo, lambsquarters (Chenopodium album); details: AAH 320 g/ha
Outline: (§1)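 Herbicidal effect was rated 3 weeks after treatment, using the scoring criteria of an earlier test. The compound, formulated as an emulsion and diluted in water to a set herbicide amount, had been sprayed uniformly on soil over freshly sown seeds. Growth took place in a greenhouse at 25° C. to 30° C.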

Row | Structure (SMILES) | O: lambsquarters, herbicidal effect rating
1 | CCCC(=O)Oc1c(C)nn(C)c(=O)c1-c1c(-c2ccc(C(C)C)cc2)sc2ccccc12 [1-126] | 2 (Herbicidal rate of 20% or more and less than 40%)
2 | COCc1ccc(-c2sc3ccccc3c2-c2c(O)c(C)nn(C)c2=O)cc1 [1-131] | 5 (Herbicidal rate of 90% or more (almost completely withered))

tested on: windgrass; assay: Test Example 4: herbicidal effect by soil treatment (Table 19, symbol L); type: in vivo, windgrass (Apera spica-venti); details: AAH 320 g/ha
Outline: as §1

Row | Structure (SMILES) | L: windgrass, herbicidal effect rating
3 | CCCC(=O)Oc1c(C)nn(C)c(=O)c1-c1c(-c2ccc(C(C)C)cc2)sc2ccccc12 [1-126] | 0 (Herbicidal rate of 5% or less (almost no effect))
4 | COCc1ccc(-c2sc3ccccc3c2-c2c(O)c(C)nn(C)c2=O)cc1 [1-131] | 2 (Herbicidal rate of 20% or more and less than 40%)

tested on: southern crabgrass; assay: Test Example 4: herbicidal effect by soil treatment (Table 19, symbol F); type: in vivo, southern crabgrass (Digitaria ciliaris); details: AAH 320 g/ha
Outline: as §1

Row | Structure (SMILES) | F: southern crabgrass, herbicidal effect rating
5 | CCCC(=O)Oc1c(C)nn(C)c(=O)c1-c1c(-c2ccc(C(C)C)cc2)sc2ccccc12 [1-126] | 0 (Herbicidal rate of 5% or less (almost no effect))
6 | COCc1ccc(-c2sc3ccccc3c2-c2c(O)c(C)nn(C)c2=O)cc1 [1-131] | 4 (Herbicidal rate of 70% or more and less than 90%)

tested on: velvetleaf; assay: Test Example 4: herbicidal effect by soil treatment (Table 19, symbol M); type: in vivo, velvetleaf (Abutilon theophrasti); details: AAH 320 g/ha
Outline: as §1

Row | Structure (SMILES) | M: velvetleaf, herbicidal effect rating
7 | CCCC(=O)Oc1c(C)nn(C)c(=O)c1-c1c(-c2ccc(C(C)C)cc2)sc2ccccc12 [1-126] | 0 (Herbicidal rate of 5% or less (almost no effect))
8 | COCc1ccc(-c2sc3ccccc3c2-c2c(O)c(C)nn(C)c2=O)cc1 [1-131] | 5 (Herbicidal rate of 90% or more (almost completely withered))

tested on: blackgrass; assay: Test Example 5: herbicidal effect by foliage application, plastic box (Table 20, symbol J); type: in vivo, blackgrass (Alopecurus myosuroides); details: foliage application, AAH 320 g/ha, three weeks after application
Outline: (§2)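 Foliar spray test: emulsion formulation diluted in water to a set application rate, sprayed onto 14-day-old plants raised in diluvial soil at 25° C to 30° C under glass. Both herbicidal effect and crop effect rated visually three weeks later.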

Row | Structure (SMILES) | J: blackgrass, herbicidal effect
9 | CCCC(=O)Oc1c(C)nn(C)c(=O)c1-c1c(-c2ccc(C(C)C)cc2)sc2ccccc12 [1-126] | 0 (Herbicidal rate of 5% or less (almost no effect))
10 | COCc1ccc(-c2sc3ccccc3c2-c2c(O)c(C)nn(C)c2=O)cc1 [1-131] | 4 (Herbicidal rate of 70% or more and less than 90%)

tested on: late watergrass; assay: Test Example 1: herbicidal activity, application before weed generation under submerged conditions (Table 16, symbol A); type: in vivo, late watergrass (Echinochloa oryzicola); details: 320 g/ha applied herbicide
Outline: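 Emulsion formulation, water-diluted to set dose, was put onto the flooded surface (4 cm depth, alluvial soil) the same day weeds were sown and 2.5-leaf rice transplanted. After 3 weeks at 25-30 °C under glass, each species was rated 0 (≤5% kill) to 5 (≥90% kill).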

Row | Structure (SMILES) | Herbicidal effect on A: late watergrass (grade 0-5)
11 | CCCC(=O)Oc1c(C)nn(C)c(=O)c1-c1c(-c2ccc(C(C)C)cc2)sc2ccccc12 [1-126] | 3 (Herbicidal rate of 40% or more and less than 70%)
12 | COCc1ccc(-c2sc3ccccc3c2-c2c(O)c(C)nn(C)c2=O)cc1 [1-131] | 2 (Herbicidal rate of 20% or more and less than 40%)

tested on: late watergrass; assay: Test Example 2: herbicidal activity, application during weed generation under submerged conditions (Table 17, symbol A); type: in vivo, late watergrass (Echinochloa oryzicola); details: AAH 320 g/ha; application during weed generation, submerged conditions
Outline: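 Wagner pot, alluvial soil, 4 cm flood; mixed sowing of all species; greenhouse 25° C.–30° C. Emulsifiable formulation, water-diluted to predetermined dose, applied to paddy water at 1–2 leaf stage. Effect rated at 3 wk using the earlier test's scoring criteria.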

Row | Structure (SMILES) | herbicidal effect rating, A: late watergrass
13 | CCCC(=O)Oc1c(C)nn(C)c(=O)c1-c1c(-c2ccc(C(C)C)cc2)sc2ccccc12 [1-126] | 2 (Herbicidal rate of 20% or more and less than 40%)
14 | COCc1ccc(-c2sc3ccccc3c2-c2c(O)c(C)nn(C)c2=O)cc1 [1-131] | 0 (Herbicidal rate of 5% or less (almost no effect))

tested on: barnyard grass; assay: Test Example 3: herbicidal effect by foliage application, Wagner pot (Table 18, symbol H); type: in vivo, barnyard grass (Echinochloa crus-galli); details: 320 g/ha
Outline: (§3)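 Plants were sown in alluvial soil held under 0.1–0.5 cm standing water and grown 14 days in a greenhouse at 25–30 °C. An emulsifiable formulation, water-diluted to the set dose, was then sprayed onto the foliage, and effects were scored three weeks later using previously defined criteria.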

Row | Structure (SMILES) | herbicidal effect on H (barnyard grass), rating 0-5
15 | CCCC(=O)Oc1c(C)nn(C)c(=O)c1-c1c(-c2ccc(C(C)C)cc2)sc2ccccc12 [1-126] | 5 (Herbicidal rate of 90% or more (almost completely withered))
16 | COCc1ccc(-c2sc3ccccc3c2-c2c(O)c(C)nn(C)c2=O)cc1 [1-131] | 5 (Herbicidal rate of 90% or more (almost completely withered))

tested on: Italian ryegrass; assay: Test Example 4: herbicidal effect by soil treatment (Table 19, symbol K); type: in vivo, Italian ryegrass (Lolium multiflorum); details: AAH 320 g/ha
Outline: as §1

Row | Structure (SMILES) | K: Italian ryegrass, herbicidal effect rating
17 | CCCC(=O)Oc1c(C)nn(C)c(=O)c1-c1c(-c2ccc(C(C)C)cc2)sc2ccccc12 [1-126] | 3 (Herbicidal rate of 40% or more and less than 70%)
18 | COCc1ccc(-c2sc3ccccc3c2-c2c(O)c(C)nn(C)c2=O)cc1 [1-131] | 5 (Herbicidal rate of 90% or more (almost completely withered))

tested on: blackgrass; assay: Test Example 4: herbicidal effect by soil treatment (Table 19, symbol J); type: in vivo, blackgrass (Alopecurus myosuroides); details: AAH 320 g/ha
Outline: as §1

Row | Structure (SMILES) | J: blackgrass, herbicidal effect rating
19 | CCCC(=O)Oc1c(C)nn(C)c(=O)c1-c1c(-c2ccc(C(C)C)cc2)sc2ccccc12 [1-126] | 0 (Herbicidal rate of 5% or less (almost no effect))
20 | COCc1ccc(-c2sc3ccccc3c2-c2c(O)c(C)nn(C)c2=O)cc1 [1-131] | 1 (Herbicidal rate of 5% or more and less than 20%)

tested on: redroot pigweed; assay: Test Example 5: herbicidal effect by foliage application, plastic box (Table 20, symbol N); type: in vivo, redroot pigweed (Amaranthus retroflexus); details: foliage application, AAH 320 g/ha, three weeks after application
Outline: as §2

Row | Structure (SMILES) | N: redroot pigweed, herbicidal effect
21 | CCCC(=O)Oc1c(C)nn(C)c(=O)c1-c1c(-c2ccc(C(C)C)cc2)sc2ccccc12 [1-126] | 5 (Herbicidal rate of 90% or more (almost completely withered))
22 | COCc1ccc(-c2sc3ccccc3c2-c2c(O)c(C)nn(C)c2=O)cc1 [1-131] | 5 (Herbicidal rate of 90% or more (almost completely withered))

tested on: lambsquarters; assay: Test Example 5: herbicidal effect by foliage application, plastic box (Table 20, symbol O); type: in vivo, lambsquarters (Chenopodium album); details: foliage application, AAH 320 g/ha, three weeks after application
Outline: as §2

Row | Structure (SMILES) | O: lambsquarters, herbicidal effect
23 | CCCC(=O)Oc1c(C)nn(C)c(=O)c1-c1c(-c2ccc(C(C)C)cc2)sc2ccccc12 [1-126] | 4 (Herbicidal rate of 70% or more and less than 90%)
24 | COCc1ccc(-c2sc3ccccc3c2-c2c(O)c(C)nn(C)c2=O)cc1 [1-131] | 5 (Herbicidal rate of 90% or more (almost completely withered))

tested on: velvetleaf; assay: Test Example 5: herbicidal effect by foliage application, plastic box (Table 20, symbol M); type: in vivo, velvetleaf (Abutilon theophrasti); details: foliage application, AAH 320 g/ha, three weeks after application
Outline: as §2

Row | Structure (SMILES) | M: velvetleaf, herbicidal effect
25 | CCCC(=O)Oc1c(C)nn(C)c(=O)c1-c1c(-c2ccc(C(C)C)cc2)sc2ccccc12 [1-126] | 4 (Herbicidal rate of 70% or more and less than 90%)
26 | COCc1ccc(-c2sc3ccccc3c2-c2c(O)c(C)nn(C)c2=O)cc1 [1-131] | 5 (Herbicidal rate of 90% or more (almost completely withered))

tested on: Italian ryegrass; assay: Test Example 5: herbicidal effect by foliage application, plastic box (Table 20, symbol K); type: in vivo, Italian ryegrass (Lolium multiflorum); details: foliage application, AAH 320 g/ha, three weeks after application
Outline: as §2

Row | Structure (SMILES) | K: Italian ryegrass, herbicidal effect
27 | CCCC(=O)Oc1c(C)nn(C)c(=O)c1-c1c(-c2ccc(C(C)C)cc2)sc2ccccc12 [1-126] | 4 (Herbicidal rate of 70% or more and less than 90%)
28 | COCc1ccc(-c2sc3ccccc3c2-c2c(O)c(C)nn(C)c2=O)cc1 [1-131] | 5 (Herbicidal rate of 90% or more (almost completely withered))

tested on: Chinese sprangletop; assay: Test Example 3: herbicidal effect by foliage application, Wagner pot (Table 18, symbol D); type: in vivo, chinese sprangletop (Leptochloa chinensis); details: 320 g/ha
Outline: as §3

Row | Structure (SMILES) | herbicidal effect on D (Chinese sprangletop), rating 0-5
29 | CCCC(=O)Oc1c(C)nn(C)c(=O)c1-c1c(-c2ccc(C(C)C)cc2)sc2ccccc12 [1-126] | 5 (Herbicidal rate of 90% or more (almost completely withered))
30 | COCc1ccc(-c2sc3ccccc3c2-c2c(O)c(C)nn(C)c2=O)cc1 [1-131] | 4 (Herbicidal rate of 70% or more and less than 90%)

tested on: persian speedwell; assay: Test Example 4: herbicidal effect by soil treatment (Table 19, symbol R); type: in vivo, Persian speedwell (Veronica persica); details: AAH 320 g/ha
Outline: as §1

Row | Structure (SMILES) | R: persian speedwell, herbicidal effect rating
31 | CCCC(=O)Oc1c(C)nn(C)c(=O)c1-c1c(-c2ccc(C(C)C)cc2)sc2ccccc12 [1-126] | 3 (Herbicidal rate of 40% or more and less than 70%)
32 | COCc1ccc(-c2sc3ccccc3c2-c2c(O)c(C)nn(C)c2=O)cc1 [1-131] | 5 (Herbicidal rate of 90% or more (almost completely withered))
